# According to patent publication US6472348B1, “Pyridone derivatives and herbicides” (Kumiai Chemical Industry Co., Ltd., priority 1996, dated 2002):
# Test system: barnyardgrass (Ec)
# Experiment: Test Example 3: herbicidal effects by upland field foliage treatment
# Type: in vivo
# Design: scale not given here
# Details: 100 g active ingredient per 10 ares, evaluated 14th day after treatment
# Procedure, shortened: (§1)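 Two-week-old greenhouse seedlings, raised in sand-filled pots (120 cm^2) with seed covered by soil, receive a foliar application. Effects are then evaluated by standard grades 14 days later, plants remaining in the greenhouse meanwhile.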
row,SMILES,Herbicidal effects Ec
1,COc1cc(-c2ccc(C(F)(F)F)n(C)c2=O)c(Cl)cc1Cl [Compound 1-205],5

# Test system: slender amaranth (Am)
# Experiment: as above
# Type: in vivo
# Design: scale not given here
# Details: 100 g active ingredient per 10 ares, evaluated 14th day after treatment
# Procedure, shortened: as §1
row,SMILES,Herbicidal effects Am
1,COc1cc(-c2ccc(C(F)(F)F)n(C)c2=O)c(Cl)cc1Cl [Compound 1-205],5

# Test system: common lambsquarters (Ch)
# Experiment: as above
# Type: in vivo
# Design: scale not given here
# Details: 100 g active ingredient per 10 ares, evaluated 14th day after treatment
# Procedure, shortened: as §1
row,SMILES,Herbicidal effects Ch
1,COc1cc(-c2ccc(C(F)(F)F)n(C)c2=O)c(Cl)cc1Cl [Compound 1-205],5

# Test system: rice flatsedge (Ci)
# Experiment: as above
# Type: in vivo
# Design: scale not given here
# Details: 100 g active ingredient per 10 ares, evaluated 14th day after treatment
# Procedure, shortened: as §1
row,SMILES,Herbicidal effects Ci
1,COc1cc(-c2ccc(C(F)(F)F)n(C)c2=O)c(Cl)cc1Cl [Compound 1-205],5

# Test system: Diaitaria ciliaris (Di)
# Experiment: as above
# Type: in vivo
# Design: scale not given here
# Details: 100 g active ingredient per 10 ares, evaluated 14th day after treatment
# Procedure, shortened: as §1
row,SMILES,Herbicidal effects Di
1,COc1cc(-c2ccc(C(F)(F)F)n(C)c2=O)c(Cl)cc1Cl [Compound 1-205],5

# Test system: pale smartweed (Po)
# Experiment: as above
# Type: in vivo
# Design: scale not given here
# Details: 100 g active ingredient per 10 ares, evaluated 14th day after treatment
# Procedure, shortened: as §1
row,SMILES,Herbicidal effects Po
1,COc1cc(-c2ccc(C(F)(F)F)n(C)c2=O)c(Cl)cc1Cl [Compound 1-205],5

# Test system: soybean (Gl)
# Experiment: Test Example 6: crop plant selectivity by upland field soil treatment (soybean), phytotoxicity
# Type: in vivo
# Design: scale not given here
# Details: dose 6.3 g ai/10a, 21st day after application
# Procedure, shortened: (§2)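 Greenhouse pot test with soil-applied compound after sowing soybean and weeds in sand; effects graded on day 21 after application.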
row,SMILES,Phytotoxicity Gl
1,COc1cc(-c2ccc(C(F)(F)F)n(C)c2=O)c(Cl)cc1Cl [Compound 1-205],1

# Test system: slender amaranth (Am)
# Experiment: Test Example 6: crop plant selectivity by upland field soil treatment (soybean), herbicidal effects
# Type: in vivo
# Design: scale not given here
# Details: dose 6.3 g ai/10a, 21st day after application
# Procedure, shortened: as §2
row,SMILES,Herbicidal effects Am
1,COc1cc(-c2ccc(C(F)(F)F)n(C)c2=O)c(Cl)cc1Cl [Compound 1-205],5

# Test system: common lambsquarters (Ch)
# Experiment: as above
# Type: in vivo
# Design: scale not given here
# Details: dose 6.3 g ai/10a, 21st day after application
# Procedure, shortened: as §2
row,SMILES,Herbicidal effects Ch
1,COc1cc(-c2ccc(C(F)(F)F)n(C)c2=O)c(Cl)cc1Cl [Compound 1-205],5

# Test system: green foxtail (Se)
# Experiment: as above
# Type: in vivo
# Design: scale not given here
# Details: dose 6.3 g ai/10a, 21st day after application
# Procedure, shortened: as §2
row,SMILES,Herbicidal effects Se
1,COc1cc(-c2ccc(C(F)(F)F)n(C)c2=O)c(Cl)cc1Cl [Compound 1-205],5

# Test system: China jute (Ab)
# Experiment: as above
# Type: in vivo
# Design: scale not given here
# Details: dose 6.3 g ai/10a, 21st day after application
# Procedure, shortened: as §2
row,SMILES,Herbicidal effects Ab
1,COc1cc(-c2ccc(C(F)(F)F)n(C)c2=O)c(Cl)cc1Cl [Compound 1-205],4

# Test system: pale smartweed (Po)
# Experiment: as above
# Type: in vivo
# Design: scale not given here
# Details: dose 6.3 g ai/10a, 21st day after application
# Procedure, shortened: as §2
row,SMILES,Herbicidal effects Po
1,COc1cc(-c2ccc(C(F)(F)F)n(C)c2=O)c(Cl)cc1Cl [Compound 1-205],5

# Test system: slender amaranth (Am)
# Experiment: Test Example 5: crop plant selectivity by upland field soil treatment (wheat), herbicidal effects
# Type: in vivo
# Design: scale not given here
# Details: dose 6.3 g ai/10a, 21st day after application
# Protocol: (§3) (Test on Crop Plant Selectivity by Upland Field Soil Treatment)
# (§4) In a plastic pot (surface area: 600 cm^2) filled with sand, wheat (Tr), Diaitaria ciliaris (Di), green foxtail (Se), pale smartweed (Po), slender amaranth (Am), common lambsquarters (Ch) and China jute (Ab) were sown and covered with soil. […] The plants were then cultured in a green house, and the evaluation of the herbicidal effects and phytotoxicity was conducted on the 21st day after the application in accordance with the standards as identified in Table 47. Symbol—represents “not tested”.
row,SMILES,Herbicidal effects Am
1,COc1cc(-c2ccc(C(F)(F)F)n(C)c2=O)c(Cl)cc1Cl [Compound 1-205],5

# Test system: common lambsquarters (Ch)
# Experiment: as above
# Type: in vivo
# Design: scale not given here
# Details: dose 6.3 g ai/10a, 21st day after application
# Protocol: as §3, §4
row,SMILES,Herbicidal effects Ch
1,COc1cc(-c2ccc(C(F)(F)F)n(C)c2=O)c(Cl)cc1Cl [Compound 1-205],5

# Test system: green foxtail (Se)
# Experiment: as above
# Type: in vivo
# Design: scale not given here
# Details: dose 6.3 g ai/10a, 21st day after application
# Protocol: as §3, §4
row,SMILES,Herbicidal effects Se
1,COc1cc(-c2ccc(C(F)(F)F)n(C)c2=O)c(Cl)cc1Cl [Compound 1-205],5

# Test system: China jute (Ab)
# Experiment: as above
# Type: in vivo
# Design: scale not given here
# Details: dose 6.3 g ai/10a, 21st day after application
# Protocol: as §3, §4
row,SMILES,Herbicidal effects Ab
1,COc1cc(-c2ccc(C(F)(F)F)n(C)c2=O)c(Cl)cc1Cl [Compound 1-205],4

# Test system: pale smartweed (Po)
# Experiment: as above
# Type: in vivo
# Design: scale not given here
# Details: dose 6.3 g ai/10a, 21st day after application
# Protocol: as §3, §4
row,SMILES,Herbicidal effects Po
1,COc1cc(-c2ccc(C(F)(F)F)n(C)c2=O)c(Cl)cc1Cl [Compound 1-205],5

# Test system: slender amaranth (Am)
# Experiment: Test Example 7: crop plant selectivity by upland field soil treatment (corn), herbicidal effects
# Type: in vivo
# Design: scale not given here
# Details: dose 6.3 g ai/10a, 21st day after application
# Protocol: as §3
# (§5) In a plastic pot (surface area: 600 cm^2) filled with sand, corn (Ze), green foxtail (Se), pale smartweed (Po), slender amaranth (Am), common lambsquarters (Ch) and China jute (Ab) were sown and covered with soil. […] The plants were then cultured in a green house, and the evaluation of the herbicidal effects and phytotoxicity was conducted on the 21st day after the application in accordance with the standards as identified in Table 47.
row,SMILES,Herbicidal effects Am
1,COc1cc(-c2ccc(C(F)(F)F)n(C)c2=O)c(Cl)cc1Cl [Compound 1-205],5

# Test system: common lambsquarters (Ch)
# Experiment: as above
# Type: in vivo
# Design: scale not given here
# Details: dose 6.3 g ai/10a, 21st day after application
# Protocol: as §3, §5
row,SMILES,Herbicidal effects Ch
1,COc1cc(-c2ccc(C(F)(F)F)n(C)c2=O)c(Cl)cc1Cl [Compound 1-205],5
